Test results taken from patent US20230190754A1, “Therapeutic combinations for the treatment of Progressive Fibrosing interstitial lung diseases” (Boehringer Ingelheim International GmbH, priority 2021, published 2023).

Test system: IPF patients
Test: Phase II clinical trial in IPF patients: Treatment Emergent Adverse Events (safety/tolerability), up to 13 weeks
[1] = AF-group (antifibrotic background), 18 mg b.i.d.

Procedure: The participants were divided into 2 groups by chance (the “active agent group” and the “placebo group”). […] One 12 mg placebo tablet and one 6 mg placebo tablet (both containing no active ingredient, see Table 1) was administered orally to the patients of the second group twice daily (b.i.d.).
The “active agent group” and the “placebo group” were further distributed to two different groups regarding background medication: the “AF-group” (“antifibrotic background medication group”) and the “Non-AF-group” (“no antifibrotic background medication group”). […] The combination of both nintedanib and pirfenidone as background medication was not allowed in the “AF-group”.
The trial was a randomised, double-blind, placebo-controlled parallel group study.

[O-][S@+]1CCc2nc(N3CCC(c4ncc(Cl)cn4)CC3)nc(NC3(CO)CCC3)c21 [Comp. of form. III]
Arthralgia, % (AF Ninted., N = 26): (7.7) %
Bronchitis, % (AF Ninted., N = 26): (3.8) %
Condition aggravated, % (AF Ninted., N = 26): (3.8) %
Cough, % (AF Ninted., N = 26): (7.7) %
Decreased appetite, % (AF Ninted., N = 26): (7.7) %
Diarrhoea, % (AF Ninted., N = 26): (46.2) %
Dyspepsia, % (AF Ninted., N = 26): (3.8) %
Fatigue, % (AF Ninted., N = 26): (3.8) %
Flatulence, % (AF Ninted., N = 26): (3.8) %
Gastrointestinal disorders, % (AF Ninted., N = 26): (46.2) %
General Disorders and Administration Side conditions, % (AF Ninted., N = 26): (19.2) %
Headache, % (AF Ninted., N = 26): (7.7) %
Infections and infestations, % (AF Ninted., N = 26): (23.1) %
Investigations, % (AF Ninted., N = 26): (26.9) %
Metabolism and nutrition disorders, % (AF Ninted., N = 26): (11.5) %
Musculoskeletal and connective tissue disorders, % (AF Ninted., N = 26): (7.7) %
Nasopharyngitis, % (AF Ninted., N = 26): (15.4) %
Nervous system disorders, % (AF Ninted., N = 26): (15.4) %
Oedema peripheral, % (AF Ninted., N = 26): (3.8) %
Pyrexia, % (AF Ninted., N = 26): (2.1) %
Respiratory, thoracic and mediastinal disorders, % (AF Ninted., N = 26): (11.5) %
Vomiting, % (AF Ninted., N = 26): (3.8) %
Abdominal Pain, % (AF Pirf., N = 15): (4.3) %
Asthenia, % (AF Pirf., N = 15): (4.3) %
Condition aggravated, % (AF Pirf., N = 15): (4.3) %
Constipation, % (AF Pirf., N = 15): (4.3) %
Cough, % (AF Pirf., N = 15): (8.7) %
Diarrhoea, % (AF Pirf., N = 15): (13.0) %
Dizziness, % (AF Pirf., N = 15): (4.3) %
Dyspepsia, % (AF Pirf., N = 15): (4.3) %
Fatigue, % (AF Pirf., N = 15): (4.3) %
Flatulence, % (AF Pirf., N = 15): (4.3) %
Gastrointestinal disorders, % (AF Pirf., N = 15): (26.1) %
General Disorders and Administration Side conditions, % (AF Pirf., N = 15): (8.7) %
Headache, % (AF Pirf., N = 15): (4.3) %
Infections and infestations, % (AF Pirf., N = 15): (4.3) %
Investigations, % (AF Pirf., N = 15): (13.0) %
Musculoskeletal and connective tissue disorders, % (AF Pirf., N = 15): (4.3) %
Nausea, % (AF Pirf., N = 15): (4.3) %
Nervous system disorders, % (AF Pirf., N = 15): (21.7) %
Respiratory, thoracic and mediastinal disorders, % (AF Pirf., N = 15): (13.0) %
Rhinorrhoea, % (AF Pirf., N = 15): (4.3) %
Vomiting, % (AF Pirf., N = 15): (4.3) %
AE resulting in death, patients % [1]: (2.0) %
AE resulting in death, patients n [1]: 1
AE: Abdominal pain, patients % [1]: (2.0) %
AE: Abdominal pain, patients n [1]: 1
AE: Arthralgia, patients % [1]: (4.1) %
AE: Arthralgia, patients n [1]: 2
AE: Asthenia, patients % [1]: (2.0) %
AE: Asthenia, patients n [1]: 1
AE: Bronchitis, patients % [1]: (2.0) %
AE: Bronchitis, patients n [1]: 1
AE: Condition aggravated, patients % [1]: (4.1) %
AE: Condition aggravated, patients n [1]: 2
AE: Constipation, patients % [1]: (2.0) %
AE: Constipation, patients n [1]: 1
AE: Cough, patients % [1]: (8.2) %
AE: Cough, patients n [1]: 4
AE: Decreased appetite, patients % [1]: (4.1) %
AE: Decreased appetite, patients n [1]: 2
AE: Diarrhoea, patients % [1]: 30.6%
AE: Diarrhoea, patients n [1]: 15
AE: Dizziness, patients % [1]: (2.0) %
AE: Dizziness, patients n [1]: 1
AE: Dyspepsia, patients % [1]: (4.1) %
AE: Dyspepsia, patients n [1]: 2
AE: Fatigue, patients % [1]: (2.0) %
AE: Fatigue, patients n [1]: 1
AE: Flatulence, patients % [1]: (4.1) %
AE: Flatulence, patients n [1]: 2
AE: Gastrointestinal disorders, patients % [1]: 36.7%
AE: Gastrointestinal disorders, patients n [1]: 18
AE: General disorders and administration site conditions, patients % [1]: (14.3) %
AE: General disorders and administration site conditions, patients n [1]: 7
AE: Headache, patients % [1]: (6.1) %
AE: Headache, patients n [1]: 3
AE: Infections and infestations, patients % [1]: (14.3) %
AE: Infections and infestations, patients n [1]: 7
AE: Investigations, patients % [1]: (20.4) %
AE: Investigations, patients n [1]: 10
AE: Metabolism and nutrition disorders, patients % [1]: (6.1) %
AE: Metabolism and nutrition disorders, patients n [1]: 3
AE: Musculoskeletal and connective tissue disorders, patients % [1]: (6.1) %
AE: Musculoskeletal and connective tissue disorders, patients n [1]: 3
AE: Nasopharyngitis, patients % [1]: (8.2) %
AE: Nasopharyngitis, patients n [1]: 4
AE: Nausea, patients % [1]: (2.0) %
AE: Nausea, patients n [1]: 1
AE: Nervous system disorders, patients % [1]: (18.4) %
AE: Nervous system disorders, patients n [1]: 9
AE: Oedema peripheral, patients % [1]: (2.0) %
AE: Oedema peripheral, patients n [1]: 1
AE: Pyrexia, patients % [1]: (2.0) %
AE: Pyrexia, patients n [1]: 1
AE: Respiratory, thoracic and mediastinal disorders, patients % [1]: (12.2) %
AE: Respiratory, thoracic and mediastinal disorders, patients n [1]: 6
AE: Rhinorrhoea, patients % [1]: (2.0) %
AE: Rhinorrhoea, patients n [1]: 1
AE: Vomiting, patients % [1]: (4.1) %
AE: Vomiting, patients n [1]: 2
AE: Weight decreased, patients % [1]: (2.0) %
AE: Weight decreased, patients n [1]: 1
AEs leading to discontinuation of trial drug, patients % [1]: (20.4) %
AEs leading to discontinuation of trial drug, patients n [1]: 10
Any AE, patients n [1]: 36
SAE: Condition aggravated, patients % [1]: (4.1) %
